A short description of experiment [1]: glucose and oxygen concentrations in treated EBS samples (i-STAT CG8+ cartridges). It counts as biochemical, human. Particulars: OX 4.0 IU per mL, Glu 700 mg/dL.
Experimental: In the first group the enzyme is anticipated to remove substantially all the oxygen and the co-reactant glucose is added in substantial excess. The second group relies on glucose already in the sample to react with the enzyme. The third group is a control with added glucose and no enzyme.
Note that i-STAT® CG8+ cartridges (Abbott Point of Care, New Jersey, USA) were used to determine the glucose and oxygen concentrations.
The “Sample 2” set of data was obtained where the treatment occurs in a closed syringe to prevent any oxygen being introduced from ambient air. […] The “Sample 3” data reflects opening the syringe about 20 minutes after the initial runs to allow ambient air access. This sample was run at the 40 minute mark. […] The “Sample 1” data in FIG. 28A is a control EBS+Glu only.
The next experiment deals with leukocytes. The experiment can be described thus: BNP immunoassay signal slope (AmpActSlope) as indicator of leukocyte interference in enriched buffy blood samples (EBS). It counts as cell-based, human.
On experiment [2], the source says: While it is more common for a blood sample used in an immunoassay performed in a laboratory to be drawn from a vein, where point-of-care (or bedside, e.g. Emergency Room, Operating Room) testing is done, it is not uncommon for the sample to be drawn from an artery. […] To assess the impact of an arterial sample on the present assay, simulated arterial samples were generated and tested. […] Simulated samples were created with a tonometer using venous blood collected in an EDTA tube. The tonometer equilibrates the blood with a predetermined gas composition.
Note these samples were not enriched as described above.

Experimental for leukocytes: The experiments described below were performed on a BNP assay, specifically an i-STAT® BNP cartridge (Abbott Point of Care, Princeton, N.J., USA) or a partially modified version thereof.
As an experimental aid to understanding the affect of leukocytes on whole-blood immunoassays, it is desirable to create an enriched buffy (blood) sample (EBS). […] In the experiments described herein, the EBS constituted approximately a ten-fold increase in the buffy concentration, i.e. roughly 90% of the plasma and red cells were removed. The hematocrit value (Hct) of the sample was therefore maintained in the normal range, roughly 50-60%.
As a baseline indicator of leukocyte interference, a cut-off value of a signal rate of change above 0.05 nA per second, was used (see right side y-axis, AmpActSlope). […] In the first group the enzyme is anticipated to remove substantially all the oxygen and the co-reactant glucose is added in substantial excess. The second group relies on glucose already in the sample to react with the enzyme. The third group is a control with added glucose and no enzyme.
With respect to the first group (EBS+OX+Glu), the initial oxygen concentration of about 200 mm Hg falls to about 10 mm Hg after 50 minutes, and the glucose concentration drops from 700 to about 100 mg/dL over the same period. During this period immunoassays were run to determine the AmpActSlope value.
To further characterize these effects, a study was run on a larger sample donor pool (15 donors multiple runs), as shown in FIG. 27. FIG. 27 is a scatter plot where the desirable AmpActSlope value is less than 0.05 and greater than −0.03 nA per second. In addition, in this particular experiment a maximum desirable sensor threshold current (ParamActDoc) was also set at 8.0 nA. The desirable result was therefore to minimize samples falling into the five segments around the target zone.

On to glucose oxidase, for which the “glucose concentration after treatment” value in experiment [1] (OX+Glu from 700 after 50 minutes) is given as “below 20 mg/dL”. Also, in experiment [1] (initial about 200 mm Hg, OX+Glu value after 50 minutes), the “oxygen concentration (PO2) after treatment” value is “about 50 mm Hg”. The “assayed samples with AmpActSlope below 0.05 nA per second” value in the experiment on leukocytes (EBS, OX 4.0 IU per mL, Glu 700 mg/dL, FIG. 26) is 9 out of 13. Further, the “reduction in number of assays with slope above the desirable threshold” value in the experiment with leukocytes (addition of glucose oxidase, in general) is “about 90%”. Also, the “difference in assays beyond threshold, treated vs untreated” value in the experiment with leukocytes (treated 1.0% vs untreated 13.4%, FIG. 27) was 92.1%. For the same substance, in the experiment on leukocytes (treated EBS+OX, N=287, 15 donors, FIG. 27), the “assays beyond threshold (AmpActSlope <0.05 and >-0.03 nA per second, ParamActDoc max 8.0 nA)” value was found to be 1.0%. In the experiment with leukocytes (venous samples), the “glucose oxidase concentration in the sample found preferable” value was above 3 IU per mL. For the same substance, the “inhibition of phagocytosis in arterial blood” value in experiment [2] (glucose oxidase 6.0 IU and 12.0 IU per mL) is “sufficient to inhibit phagocytosis”. In experiment [2] (simulated arterial blood, initial PO2 about 150 mm Hg, glucose oxidase 6.0 IU and 12.0 IU per mL), the “partial pressure of oxygen in the sample” value is “below 50 mm Hg”. Also, in experiment [2] (tonometered whole blood, glucose oxidase 6 and 12 IU per mL, no added glucose), the “change in glucose and PO2” value was “decreased glucose and PO2”.

The record behind these values is US9316638B2, “Reagents for reducing leukocyte interference in immunoassays” (Abbott Point of Care Inc., priority 2010, dated 2016).
